Measured values taken from patent US11213512B2, “Bis-amino acid based compound and use thereof” (THE CURATORS OF THE UNIVERSITY OF MISSOURI, priority 2016, dated 2022).

Experiments:
Tet^R E. coli = test: Membrane permeability and viability, confocal microscopy (propidium iodide / fluorescein diacetate); format: cell-based, Escherichia coli; settings: 2 at 24 μM, 10 at 6 μM (~½ MIC), 30 min
Description: To test the membrane permeability of the Tet^R E. coli, the bacteria was first grown overnight from one CFU in media containing 100 μg/mL Ampicillin at 37° C. and 200 RPM. Tet^R E. coli was then knocked back to O.D. 600 nm=0.550 before use. In a sterile test tube, cells were added followed by either compounds 2 or 10 at half-MIC concentrations and incubated at 37° C. and 200 RPM. The concentration of DMSO was kept constant at 0.5% —by volume in each case. After 30 minutes of incubation, the cells were washed by centrifugation at 3000×g for 5 minutes and re-suspended in sterile phosphate buffered saline (PBS). Propidium iodide (30 μM, Thermo-Fischer) and fluorescein diacetate (60 μM, Sigma-Aldrich) were added to the Tet^R E. coli cells in the PBS, mixed by vortexing and incubated at 37° C. and 200 RPM. After 30 minutes, the cells were washed again by centrifugation at 3000×g for 5 minutes. The pellet was suspended in a fresh PBS, loaded onto a clean glass slide, covered with a cover slip and observed under Zeiss LSM 700 confocal microscope.
The study was designed to assess the membrane permeability and viability of the E. coli in the presence of BTs 2 and 10. The three panels in FIG. 6 show the bright field (BF) microscopic images (top row), the result when fluorescein diacetate (FDA) is present (middle row), and the presence of propidium iodide (PI, bottom row), if any. […] When it does, it intercalates in DNA, which leads to enhanced fluorescence. Fluorescein diacetate is incorporated into the cells during growth, but is not fluorescent. If the organism is or remains vital, the diester will be hydrolyzed and fluorescein will be observed by its fluorescence emission.
Controls for the permeability/viability assay were included for E. coli in the presence of a final concentration of 0.5% (v/v) DMSO (the vehicle for administration of BTs), and a final concentration of 0.1% […] Triton X-100. […] Thus, less than or equal to 0.5% DMSO (v/v) was always used; the control is shown in the second column. Triton X-100 is a potent detergent, which was used at 0.1% or ˜1,670 μM.

Cos-7 cells = test: Cytotoxicity to mammalian cells, XTT assay; format: cell-based, Cercopithecus aethiops; settings: 24 h; for percent survival Cos-7: at MIC against Tet^R E. coli (2: 48, 3: 28, 5: 56, 6: 120, 7: 128, 10: 10 μM); for cytotoxicity to Cos-7 (in words): at MIC against Tet^R E. coli (2: 48, 7: 128, 10: 10 μM); for survival of Cos-7 (in words): two-fold increase over MIC / highest concentrations tested
Description: It was initially hypothesized that antimicrobial activity resulted from membrane disruption. Membrane active compounds are often cytotoxic to mammalian cells (Shai, Biopolymers 2002, 66, 236-48; Shai, et al., Curr. Protein Pept. Sci. 2006, 7, 479-86). The survival of three mammalian epithelial cell lines was assayed for 2, 3, 5, and 10. […] The cell lines studied were human embryonic kidney (HEK-293), human cervix epithelial (HeLa, ATCC Accession No. CCL-2), and Cercopithecus aethiops kidney (Cos-7, ATCC Accession No. CRL 1651). HeLa cells were acquired from ATCC. Cos-7 and HEK-293 cells were donated by colleagues. Cell lines were regularly maintained in growth media containing DMEM (ATCC), 10% fetal bovine serum (FBS, ATCC) and 1% penicillin-streptomycin solution (ATCC). Adherent HEK-293, HeLa and Cos-7 cells were trypsinized using 0.25% (w/v) trypsin-EDTA (Sigma-Aldrich), suspended in a fresh media and diluted to get a concentration of 3×10^5 cells/ml. Cells were seeded in a 96-well plate (100 μL/well) to get 3×10^4 cells/well. The plates were incubated for 24 hours at 5% CO2 and 37° C. to reach a confluency of 80-90%.
In a sterile 1.5 mL micro-centrifuge tube, compounds 2, 3, 5, 6, 7 and 10 (0.5% DMSO) were mixed with assay media (DMEM+10% FBS) and serially diluted by 2-fold each to get 2[MIC], [MIC], ½[MIC] and ¼ [MIC] concentrations. A control containing 0.5% DMSO was also prepared. After 24 hours, the spent media in the 96-well plate containing HEK-293, HeLa and Cos-7 cells (90% confluency) was replaced with 100 μL media containing the compounds 2, 3, 5, 6, 7 and 10 at various concentrations. The cells were incubated at 37° C. and 5% CO2 for 24 hours before performing XTT assay (Sigma-Aldrich). The XTT assay was performed according to the manufacturer's protocol. After 24 hours of treatment with compounds, the media was replaced with PBS and 25 μL XTT was added to each well. The XTT assay works by the reduction of tetrazolium compound by alive cells to the colored soluble formazan product. The absorbance of the product was measured at 450 nm (XTT) and 690 nm (background). Percent survival was calculated by comparing the average absorbance of cells treated with compounds 2, 3, 5, 6, 7, and 10 to that of cells alone. Two replicates for each treatment were determined. Average percent survival and standard deviation were calculated.
Cells were cultured for 24 h in 96-well plates and treated with media containing concentrations using [MIC] and [MIC]×2 determined previously for Tet^R E. coli. The number of surviving cells was determined using an XTT assay (Sigma-Aldrich); the results are represented as percent survival in FIG. 2. Cells alone were used as controls and established 100% survival. The data represent two replicates of three trials and the error bars represent the standard deviation.

[1] = Aggregate detection by dynamic light scattering; format: physicochemical; settings: 10.(HCl)2 at concentrations between 10 μM and 1 mM
Description: Amphiphiles are known to enhance the permeability of bacterial boundary layers (Lambert and Hammond, Biochem. Biophys. Res. Commun. 1973, 54, 796-799; and Hancock, Lancet 1997, 349, 418-422). Amphiphiles are also known to form aggregates in aqueous solution. An effort to detect aggregates of 10 was made by using dynamic light scattering (DLS). Compound 10 was deemed to be the most amphiphilic (bola-amphiphilic) of the structures owing to the estimated maximal spacing of the amino groups (Fuhrhop, et al., J. Am. Chem. Soc. 1993, 115, 1600-1601). Solutions of 10.(HCl)2 at concentrations between 10 μM and 1 mM were prepared and examined by dynamic light scattering methods. At the highest concentration, it appeared that some aggregates formed, but the counts were low and the results were considered inconclusive.

Cl.Cl.N[C@@H](Cc1c[nH]c2ccccc12)C(=O)Nc1cccc(NC(=O)[C@@H](N)Cc2c[nH]c3ccccc23)c1 [Compound 2, (2S,2′S)-1,1′-(1,3-Phenylenebis(azanediyl))bis(3-(1H-indol-3-yl)-1-oxopropan-2-aminium) chloride]
viability (fluorescein diacetate fluorescence) (Tet^R E. coli): vital
percent survival Cos-7 (Cos-7 cells): 100%
cytotoxicity to Cos-7 (in words) (Cos-7 cells): no cytotoxicity
survival of Cos-7 (in words) (Cos-7 cells): unaffected

Cl.Cl.N[C@H](Cc1c[nH]c2ccccc12)C(=O)Nc1cccc(NC(=O)[C@H](N)Cc2c[nH]c3ccccc23)c1 [Compound 3, (2R,2′R)-1,1′-(1,3-Phenylenebis(azanediyl))bis(3-(1H-indol-3-yl)-1-oxopropan-2-aminium) chloride]
percent survival Cos-7 (Cos-7 cells): 100%

Cl.Cl.N[C@@H](Cc1c[nH]c2ccccc12)C(=O)Nc1ccccc1NC(=O)[C@@H](N)Cc1c[nH]c2ccccc12 [Compound 5, (2S,2′S)-1,1′-(1,2-Phenylenebis(azanediyl))bis(3-(1H-indol-3-yl)-1-oxopropan-2-aminium) chloride]
percent survival Cos-7 (Cos-7 cells): 100%
survival of Cos-7 (in words) (Cos-7 cells): unaffected

Cl.Cl.N[C@@H](Cc1c[nH]c2ccccc12)C(=O)Nc1ccc(NC(=O)[C@@H](N)Cc2c[nH]c3ccccc23)cc1 [Compound 6, (2S,2′S)-1,1′-(1,4-Phenylenebis(azanediyl))bis(3-(1H-indol-3-yl)-1-oxopropan-2-aminium) chloride]
percent survival Cos-7 (Cos-7 cells): 100%

Cl.Cl.N[C@@H](Cc1c[nH]c2ccccc12)C(=O)NCCCNC(=O)[C@@H](N)Cc1c[nH]c2ccccc12 [Compound 7, (2S,2′S)-1,1′-(Propane-1,3-diylbis(azanediyl))bis(3-(1H-indol-3-yl)-1-oxopropan-2-aminium) chloride]
cytotoxicity to Cos-7 (in words) (Cos-7 cells): minimally toxic

Cl.Cl.N[C@H](Cc1c[nH]c2ccccc12)C(=O)NCCCCCCCCCCCCNC(=O)[C@@H](N)Cc1c[nH]c2ccccc12 [Compound 10, (S)-1-((12-((R)-2-Ammonio-3-(1H-indol-3-yl)propanamido)dodecyl)amino)-3-(1H-indol-3-yl)-1-oxopropan-2-aminium chloride]
aggregate formation in aqueous solution (DLS) [1]: inconclusive
viability (fluorescein diacetate fluorescence) (Tet^R E. coli): vital
cytotoxicity to Cos-7 (in words) (Cos-7 cells): minimally toxic
